Measured values reported in US12324802B2, “Modulators of cystic fibrosis transmembrane conductance regulator” (Vertex Pharmaceuticals Incorporated, priority 2020, dated 2025).

molecular target: T1, CFTR (F508del/MF-HBE cells) (Homo sapiens, UniProt P13569, DEL508-508); assay: Ussing chamber assay of CFTR-mediated short-circuit currents (identification of potentiator compounds); format: cell-based; conditions: CFTR-mediated ISC in F508del/MF-HBE cells; incubated 18-24 hours at 37° C. with 10 μM (14S)-8-[3-(2-{dispiro[2.0.2.1]heptan-7-yl}ethoxy)-1H-pyrazol-1-yl]-...-2,2,4-trione, 20% human serum
T1 construct: human bronchial epithelial (HBE) cells derived from CF subjects heterozygous for F508del and a minimal function CFTR mutation; endogenous in cells; host or cells: primary human bronchial epithelial cells from CF subjects (F508del/MF genotype)
Method: Ussing Chamber Assay of CFTR-Mediated Short-Circuit Currents
Ussing chamber experiments were performed using human bronchial epithelial (HBE) cells derived from CF subjects heterozygous for F508del and a minimal function CFTR mutation (F508del/MF-HBE) and cultured as previously described (Neuberger T, Burton B, Clark H, Van Goor F Methods Mol Biol 2011:741:39-54). After four days the apical media was removed, and the cells were grown at an air liquid interface for >14 days prior to use.
To isolate the CFTR-mediated short-circuit (ISC) current, F508del/MF-HBE grown on Costar® Snapwell™ cell culture inserts were mounted in an Ussing chamber and the transepithelial ISC was measured under voltage-clamp recording conditions (Vhold=0 mV) at 37° C. The basolateral solution contained (in mM) 145 NaCl, 0.83 K2HPO4, 3.3 KH2PO4, 1.2 MgCl2, 1.2 CaCl2), 10 Glucose, 10 HEPES (pH adjusted to 7.4 with NaOH) and the apical solution contained (in mM) 145 NaGluconate, 1.2 MgCl2, 1.2 CaCl2), 10 glucose, 10 HEPES (pH adjusted to 7.4 with NaOH) and 30 μM amiloride to block the epithelial sodium channel. Forskolin (20 μM) was added to the apical surface to activate CFTR, followed by apical addition of a CFTR inhibitor cocktail consisting of BPO, GlyH-101 and CFTR inhibitor 172 (each at 20 μM final assay concentration) to specifically isolate CFTR currents. The CFTR-mediated ISC (μA/cm^2) for each condition was determined from the peak forskolin response to the steady-state current following inhibition.
Identification of Potentiator Compounds
The activity of the CFTR potentiator compounds on the CFTR-mediated ISC was determined in Ussing chamber studies as described above. The F508del/MF-HBE cell cultures were incubated with the potentiator compounds at a range of concentrations in combination with 10 μM (14S)-8-[3-(2-{dispiro[2.0.2.1]heptan-7-yl}ethoxy)-1H-pyrazol-1-yl]-12,12-dimethyl-2λ^6-thia-3,9,11,18,23-pentaazatetracyclo [17.3.1.111,14.05,10]tetracosa-1(22),5,7,9,19(23),20-hexaene-2,2,4-trione for 18-24 hours at 37° C. and in the presence of 20% human serum. The concentration of potentiator compounds and (14S)-8-[3-(2-{dispiro[2.0.2.1]heptan-7-yl}ethoxy)-1H-pyrazol-1-yl]-12,12-dimethyl-2λ^6-thia-3,9,11,18,23-pentaazatetracyclo [17.3.1.111,14.05,10]tetracosa-1(22),5,7,9,19(23),20-hexaene-2,2,4-trione used during the 18-24 hours incubations was kept constant throughout the Ussing chamber measurement of the CFTR-mediated ISC to ensure compounds were present throughout the entire experiment. The efficacy and potency of the putative F508del potentiators was compared to that of the known Vertex potentiator, ivacaftor (N-[2,4-bis(1,1-dimethylethyl)-5-hydroxyphenyl]-1,4-dihydro-4-oxoquinoline-3-carboxamide).

T1 sequence (P13569 with tags, fused parts or gaps DEL508-508): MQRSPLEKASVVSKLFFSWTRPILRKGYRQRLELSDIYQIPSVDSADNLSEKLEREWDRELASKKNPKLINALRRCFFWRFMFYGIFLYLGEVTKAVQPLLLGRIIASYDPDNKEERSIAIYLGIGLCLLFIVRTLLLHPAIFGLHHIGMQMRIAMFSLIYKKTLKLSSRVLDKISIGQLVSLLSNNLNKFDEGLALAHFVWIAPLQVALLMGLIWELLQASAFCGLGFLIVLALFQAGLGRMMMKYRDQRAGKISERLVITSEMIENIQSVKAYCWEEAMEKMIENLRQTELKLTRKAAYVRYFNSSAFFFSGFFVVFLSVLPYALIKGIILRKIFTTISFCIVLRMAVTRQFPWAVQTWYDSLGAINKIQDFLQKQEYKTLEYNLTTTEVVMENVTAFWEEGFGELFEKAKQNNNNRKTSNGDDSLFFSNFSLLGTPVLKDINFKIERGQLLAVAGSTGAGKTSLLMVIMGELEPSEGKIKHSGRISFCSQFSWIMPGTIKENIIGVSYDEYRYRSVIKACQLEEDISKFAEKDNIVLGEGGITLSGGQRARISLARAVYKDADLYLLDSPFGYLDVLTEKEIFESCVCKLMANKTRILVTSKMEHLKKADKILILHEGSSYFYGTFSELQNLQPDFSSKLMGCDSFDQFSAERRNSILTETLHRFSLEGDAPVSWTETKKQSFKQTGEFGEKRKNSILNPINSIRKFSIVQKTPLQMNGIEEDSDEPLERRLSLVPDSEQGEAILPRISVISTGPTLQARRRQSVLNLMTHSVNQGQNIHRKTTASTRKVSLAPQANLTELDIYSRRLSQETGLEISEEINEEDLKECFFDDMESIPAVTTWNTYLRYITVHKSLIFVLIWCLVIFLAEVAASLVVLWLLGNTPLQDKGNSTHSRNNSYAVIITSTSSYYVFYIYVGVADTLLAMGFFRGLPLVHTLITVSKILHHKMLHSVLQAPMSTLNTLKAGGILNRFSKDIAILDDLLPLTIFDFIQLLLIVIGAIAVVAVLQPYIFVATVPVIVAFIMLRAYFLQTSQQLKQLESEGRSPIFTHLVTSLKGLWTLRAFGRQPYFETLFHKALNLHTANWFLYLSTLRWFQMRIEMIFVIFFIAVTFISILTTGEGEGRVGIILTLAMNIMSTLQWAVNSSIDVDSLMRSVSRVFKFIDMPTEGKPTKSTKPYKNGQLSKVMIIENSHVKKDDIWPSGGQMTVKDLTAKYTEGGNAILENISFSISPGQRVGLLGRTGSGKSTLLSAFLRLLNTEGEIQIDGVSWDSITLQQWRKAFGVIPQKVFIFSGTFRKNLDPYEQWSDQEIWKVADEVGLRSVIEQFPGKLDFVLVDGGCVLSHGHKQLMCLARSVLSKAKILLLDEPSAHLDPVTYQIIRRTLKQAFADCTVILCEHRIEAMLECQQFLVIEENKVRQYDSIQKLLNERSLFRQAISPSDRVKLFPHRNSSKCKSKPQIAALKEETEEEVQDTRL

Structure (SMILES)	EC50
Nc1cc(-c2ccccc2)c2nc1-c1nnc(o1)C(O)(C(F)(F)F)CCCCC[C@@H]1CCCN21 (mixture of isomers) [Compound 118, (12R)-20-amino-18-phenyl-6-(trifluoromethyl)-22-oxa-3,4,16,21-tetraazatetracyclo[15.3.1.12,5.012,16]docosa-1(21),2,4,17,19-pentaen-6-ol]	> 1 µM
Nc1cc(C2CCOCC2)c2nc1-c1nnc(o1)C(O)(C(F)(F)F)CCCCC[C@@H]1CCCN21 (mixture of isomers) [Compound 123, (12R)-20-amino-18-(oxan-4-yl)-6-(trifluoromethyl)-22-oxa-3,4,16,21-tetraazatetracyclo[15.3.1.12,5.012,16]docosa-1(21),2,4,17,19-pentaen-6-ol]	> 1 µM
Nc1cc(-c2ccncc2)c2nc1-c1nnc(o1)C(O)(C(F)(F)F)CCCCC[C@@H]1CCCN21 (mixture of isomers) [Compound 125, (12R)-20-amino-18-(pyridin-4-yl)-6-(trifluoromethyl)-22-oxa-3,4,16,21-tetraazatetracyclo[15.3.1.12,5.012,16]docosa-1(21),2,4,17,19-pentaen-6-ol]	> 1 µM
Nc1cc(C2CCOC2)c2nc1-c1nnc(o1)C(O)(C(F)(F)F)CCCCC[C@@H]1CCCN21 (mixture of isomers) [Compound 126, (12R)-20-amino-18-(oxolan-3-yl)-6-(trifluoromethyl)-22-oxa-3,4,16,21-tetraazatetracyclo[15.3.1.12,5.012,16]docosa-1(21),2,4,17,19-pentaen-6-ol]	> 1 µM
Nc1cc(-c2ccccn2)c2nc1-c1nnc(o1)C(O)(C(F)(F)F)CCCCC[C@@H]1CCCN21 (mixture of isomers) [Compound 132, (12R)-20-amino-18-(pyridin-2-yl)-6-(trifluoromethyl)-22-oxa-3,4,16,21-tetraazatetracyclo[15.3.1.12,5.012,16]docosa-1(21),2,4,17,19-pentaen-6-ol]	> 1 µM
Nc1cc(C(F)(F)F)c2nc1-c1nnc(o1)[C@](O)(C(F)(F)F)c1cc(ccc1F)C=CC[C@@H]1CCCN21 (mixture of isomers) [Compound 139, (6S,15S)-23-amino-8-fluoro-6,21-bis(trifluoromethyl)-26-oxa-3,4,19,24-tetraazapentacyclo[18.3.1.12,5.17,11.015,19]hexacosa-1(24),2,4,7(25),8,10,12,20,22-nonaen-6-ol]	> 1 µM
NC(=O)c1cc(N)c2nc1N1CCC[C@H]1CCCCCC(O)(C(F)(F)F)C1=NN=C2O1 (mixture of isomers) [Compound 142, (12R)-20-amino-6-hydroxy-6-(trifluoromethyl)-22-oxa-3,4,16,21-tetraazatetracyclo[15.3.1.12,5.012,16]docosa-1(21),2,4,17,19-pentaene-18-carboxamide]	> 1 µM
Nc1cc(C(F)(F)F)c2nc1-c1nnc(o1)[C@](O)(C(F)(F)F)CCCCC[C@H]1CCCN21 (single isomer, unassigned) [Compound 6]	0.5 to 1 µM
CN1CCCCCCC(O)(C(F)(F)F)C2=NN=C(O2)c2nc1c(C(F)(F)F)cc2N (single isomer, unassigned) [Compound 20, 17-amino-13-methyl-6,15-bis(trifluoromethyl)-19-oxa-3,4,13,18-tetrazatricyclo[12.3.1.12,5]nonadeca-1(18),2,4,14,16-pentaen-6-ol]	0.5 to 1 µM

Now from value to molecule:

EC50	Structure (SMILES)
< 0.5 µM	CN1CCC=CCCC(=O)C2=NN=C(O2)c2nc1c(C(F)(F)F)cc2N (mixture of isomers) [Compound 75, 17-amino-13-methyl-15-(trifluoromethyl)-19-oxa-3,4,13,18-tetrazatricyclo[12.3.1.12,5]nonadeca-1(18),2,4,9,14,16-hexaen-6-one]
< 0.5 µM	Cn1cc(-c2cc(N)c3nc2N2CCC[C@H]2CCCCCC(O)(C(F)(F)F)C2=NN=C3O2)cn1 (mixture of isomers) [Compound 127, (12R)-20-amino-18-(1-methyl-1H-pyrazol-4-yl)-6-(trifluoromethyl)-22-oxa-3,4,16,21-tetraazatetracyclo[15.3.1.12,5.012,16]docosa-1(21),2,4,17,19-pentaen-6-ol]
< 0.5 µM	Nc1cc(-c2cn[nH]c2)c2nc1-c1nnc(o1)C(O)(C(F)(F)F)CCCCC[C@@H]1CCCN21 (mixture of isomers) [Compound 128, (12R)-20-amino-18-(1H-pyrazol-4-yl)-6-(trifluoromethyl)-22-oxa-3,4,16,21-tetraazatetracyclo[15.3.1.12,5.012,16]docosa-1(21),2,4,17,19-pentaen-6-ol]
< 0.5 µM	Nc1cc(C2CCCCC2)c2nc1-c1nnc(o1)C(O)(C(F)(F)F)CCCCC[C@@H]1CCCN21 (mixture of isomers) [Compound 129, (12R)-20-amino-18-cyclohexyl-6-(trifluoromethyl)-22-oxa-3,4,16,21-tetraazatetracyclo[15.3.1.12,5.012,16]docosa-1(21),2,4,17,19-pentaen-6-ol]
< 0.5 µM	Nc1cc(S(=O)(=O)c2ccccc2)c2nc1-c1nnc(o1)C(O)(C(F)(F)F)CCCCC[C@@H]1CCCN21 (mixture of isomers) [Compound 133, (12R)-20-amino-18-(benzenesulfonyl)-6-(trifluoromethyl)-22-oxa-3,4,16,21-tetraazatetracyclo[15.3.1.12,5.012,16]docosa-1(20),2,4,17(21),18-pentaen-6-ol]
< 0.5 µM	Nc1cc(Cc2ccccc2)c2nc1-c1nnc(o1)C(O)(C(F)(F)F)CCCCC[C@@H]1CCCN21 (mixture of isomers) [Compound 137, (12R)-20-amino-18-benzyl-6-(trifluoromethyl)-22-oxa-3,4,16,21-tetraazatetracyclo[15.3.1.12,5.012,16]docosa-1(21),2,4,17,19-pentaen-6-ol]
< 0.5 µM	Nc1cc(C(F)(F)F)c2nc1-c1nnc(o1)[C@@](O)(C(F)(F)F)c1cc(ccc1F)C=CC[C@@H]1CCCN21 (mixture of isomers) [Compound 138, (6R,15S)-23-amino-8-fluoro-6,21-bis(trifluoromethyl)-26-oxa-3,4,19,24-tetraazapentacyclo[18.3.1.12,5.17,11.015,19]hexacosa-1(24),2,4,7(25),8,10,12,20,22-nonaen-6-ol]
< 0.5 µM	Nc1cc(S(=O)(=O)c2ccc(OC(F)(F)F)cc2)c2nc1-c1nnc(o1)C(O)(C(F)(F)F)CCCCC[C@@H]1CCCN21 (mixture of isomers) [Compound 143, (12R)-20-amino-18-[4-(trifluoromethoxy)benzenesulfonyl]-6-(trifluoromethyl)-22-oxa-3,4,16,21-tetraazatetracyclo[15.3.1.12,5.012,16]docosa-1(20),2,4,17(21),18-pentaen-6-ol]
< 0.5 µM	Nc1cc([S+]([O-])c2ccc(OC(F)(F)F)cc2)c2nc1-c1nnc(o1)C(O)(C(F)(F)F)CCCCC[C@@H]1CCCN21 (mixture of isomers) [Compound 145, (12R)-20-amino-18-[4-(trifluoromethoxy)benzenesulfinyl]-6-(trifluoromethyl)-22-oxa-3,4,16,21-tetraazatetracyclo[15.3.1.12,5.012,16]docosa-1(21),2,4,17,19-pentaen-6-ol]
< 0.5 µM	Nc1cc(C(F)(F)F)c2nc1-c1nnc(o1)[C@@](O)(C(F)(F)F)CCCCC[C@H]1CCCN21 (single isomer, unassigned) [Compound 7]
< 0.5 µM	CN1CCCCCCC(O)(C(F)(F)F)C2=NN=C(O2)c2nc1c(C(F)(F)F)cc2N (single isomer, unassigned) [Compound 19, 17-amino-13-methyl-6,15-bis(trifluoromethyl)-19-oxa-3,4,13,18-tetrazatricyclo[12.3.1.12,5]nonadeca-1(18),2,4,14,16-pentaen-6-ol]
< 0.5 µM	Nc1cc(C(F)(F)F)c2nc1-c1nnc(o1)C(O)CCCCC[C@@H]1CCCN21 (single isomer, unassigned) [Compound 21]
